Test results as given in PubChem BioAssay AID330 (DTP/NCI, 2004).
“And” between values parts separate entries of the source, which are not always exact repeats. Identical values can stand only once. Inconclusive results and toxic doses are left out. The calls were made as follows: active = survival T/C of 150% or more; inactive = T/C below 125% in these data. Peptide text beside a SMILES is read from it. * marks the point of attachment. OtBu = CC(C)(C)O*

Test system: P388 leukemia ip, CD2F1 mice, survival T/C
Test: NCI In Vivo Anticancer Drug Screen. Data for tumor model P388 Leukemia (intraperitoneal) in CD2F1 (CDF1) mice
Settings: endpoint: median survival time, higher = longer survival
How it was run: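 Mice carrying the transplanted tumor received test compound or vehicle. Survival was recorded in each group, and the value is the treated-group measurement divided by that of the vehicle-treated control group.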

[1] = dose: 60.0 mg/kg/injection, schedule: Q01DX005 (ip), vehicle: saline with Tween-80
[2] = dose: 120.0 mg/kg/injection, schedule: Q01DX005 (ip), vehicle: saline with Tween-80
[3] = dose: 240.0 mg/kg/injection, schedule: Q01DX005 (ip), vehicle: saline with Tween-80
[4] = dose: 60.0 mg/kg/injection, schedule: Q01DX005 (ip), vehicle: Klucel (hydroxypropylcellulose) (HPC)
[5] = dose: 120.0 mg/kg/injection, schedule: Q01DX005 (ip), vehicle: Klucel (hydroxypropylcellulose) (HPC)
[6] = dose: 25.0 mg/kg/injection, schedule: Q01DX009 (ip), vehicle: saline with Tween-80
[7] = dose: 25.0 mg/kg/injection, schedule: Q01DX009 (ip), vehicle: saline
[8] = dose: 50.0 mg/kg/injection, schedule: Q01DX009 (ip), vehicle: saline with Tween-80
[9] = dose: 50.0 mg/kg/injection, schedule: Q01DX009 (ip), vehicle: saline
[10] = dose: 100.0 mg/kg/injection, schedule: Q01DX009 (ip), vehicle: saline with Tween-80
[11] = dose: 100.0 mg/kg/injection, schedule: Q01DX009 (ip), vehicle: saline
[12] = dose: 12.5 mg/kg/injection, schedule: Q01DX009 (ip), vehicle: saline with Tween-80
[13] = dose: 100.0 mg/kg/injection, schedule: Q01DX001 (ip), vehicle: Klucel (hydroxypropylcellulose) (HPC)
[14] = dose: 200.0 mg/kg/injection, schedule: Q01DX001 (ip), vehicle: Klucel (hydroxypropylcellulose) (HPC)
[15] = dose: 400.0 mg/kg/injection, schedule: Q01DX001 (ip), vehicle: Klucel (hydroxypropylcellulose) (HPC)
[16] = dose: 15.0 mg/kg/injection, schedule: Q01DX005 (ip), vehicle: saline
[17] = dose: 30.0 mg/kg/injection, schedule: Q01DX005 (ip), vehicle: saline
[18] = dose: 60.0 mg/kg/injection, schedule: Q01DX005 (ip), vehicle: saline
[19] = dose: 120.0 mg/kg/injection, schedule: Q01DX005 (ip), vehicle: saline
[20] = dose: 50.0 mg/kg/injection, schedule: Q01DX005 (ip), vehicle: Klucel (hydroxypropylcellulose) (HPC)
[21] = dose: 100.0 mg/kg/injection, schedule: Q01DX005 (ip), vehicle: Klucel (hydroxypropylcellulose) (HPC)
[22] = dose: 200.0 mg/kg/injection, schedule: Q01DX005 (ip), vehicle: Klucel (hydroxypropylcellulose) (HPC)
[23] = dose: 200.0 mg/kg/injection, schedule: Q01DX009 (ip), vehicle: saline

Measured: T/C

COC(=O)C1(CS(C)=O)NC(=S)NC(=O)C1C#N (centres undefined)
inactive: [1] 106 % of control | [2] 99 % of control | [3] 97 % of control

O=C(CC1(O)C(=O)Nc2ccc([N+](=O)[O-])cc21)c1ccco1 (centres undefined)
inactive: [4] 96 % of control | [5] 100 % of control | dose: 240.0 mg/kg/injection, schedule: Q01DX005 (ip), vehicle: Klucel (hydroxypropylcellulose) (HPC) 99 % of control

CC(=O)Nc1nc(NC(C)=O)c(N=O)c(NC(C)=O)n1
inactive: [6] 103 % of control | [7] 108 % of control | [8] 103 % of control | [9] 108 % of control and 120 % of control | [10] 94 % of control | [11] 112 % of control

Cc1c(-c2ccccc2)ccnc1/C=N/NC(=S)NCc1cccnc1
inactive: [12] 98 % of control | [6] 96 % of control | [8] 111 % of control and 122 % of control | [10] 88 % of control

COc1cc(OC)c2c(c1)C(=O)[C@]1(C)C3(C)OC(=O)C(c4ccccc43)[C@]21C (some centres undefined)
inactive: [13] 102 % of control | [14] 100 % of control | [15] 105 % of control

CSc1ncc(/C(C)=N\N=C(N)N)c(C)n1
inactive: [16] 103 % of control and 97 % of control | [17] 93 % of control and 98 % of control | [18] 94 % of control and 97 % of control | [19] 99 % of control

CN(C)C1c2cc(Cl)ccc2-c2c(Cl)cc(Cl)cc21 (centres undefined)
inactive: [20] 100 % of control and 91 % of control | [21] 96 % of control | [22] 91 % of control and 92 % of control

CC1CC(=O)c2c(O)ccc(Cl)c21 (centres undefined)
inactive: [20] 106 % of control | [21] 104 % of control | [22] 100 % of control

COC(=O)/C=C/c1ccccc1-c1ccccc1/C=C/C(=O)OC
inactive: dose: 100.0 mg/kg/injection, schedule: Q04DX003 (ip), vehicle: saline 105 % of control | dose: 200.0 mg/kg/injection, schedule: Q04DX003 (ip), vehicle: saline 102 % of control | dose: 400.0 mg/kg/injection, schedule: Q04DX003 (ip), vehicle: saline 100 % of control

C[Si](C)(C)O/C=C1\CCCCC1=O
inactive: [8] 121 % of control | [10] 106 % of control

Cc1coc2c1C(OC(=O)C(C)C)C1(C)C(C)CCC(O)C1C2=O (centres undefined)
inactive: dose: 1.56 mg/kg/injection, schedule: Q01DX009 (ip), vehicle: saline with Tween-80 100 % of control | dose: 3.13 mg/kg/injection, schedule: Q01DX009 (ip), vehicle: saline with Tween-80 96 % of control | dose: 6.25 mg/kg/injection, schedule: Q01DX009 (ip), vehicle: saline with Tween-80 93 % of control | dose: 12.5 mg/kg/injection, schedule: Q01DX009 (ip), vehicle: Klucel (hydroxypropylcellulose) (HPC) 94 % of control | [12] 109 % of control | dose: 50.0 mg/kg/injection, schedule: Q01DX009 (ip), vehicle: Klucel (hydroxypropylcellulose) (HPC) 97 % of control | dose: 100.0 mg/kg/injection, schedule: Q01DX009 (ip), vehicle: Klucel (hydroxypropylcellulose) (HPC) 114 % of control

Cc1ccc(NC(=O)NCc2ccco2)cc1[N+](=O)[O-]
inactive: [20] 96 % of control | [21] 96 % of control | [22] 89 % of control

O=C(NCN1CCOCC1)c1ccccc1O
inactive: dose: 100.0 mg/kg/injection, schedule: Q04DX002 (ip), vehicle: saline with Tween-80 98 % of control | dose: 200.0 mg/kg/injection, schedule: Q04DX002 (ip), vehicle: saline with Tween-80 104 % of control

COC(=O)c1ccc(C(=O)OC)c2nc3cc([N+](=O)[O-])ccc3nc12
inactive: dose: 60.0 mg/kg/injection, schedule: Q01DX005 (ip), vehicle: suspension in saline 100 % of control | dose: 120.0 mg/kg/injection, schedule: Q01DX005 (ip), vehicle: suspension in saline 102 % of control

O=[N+]([O-])c1cc2c(cc1Br)C1C(C3C2C2(Cl)C(Cl)=C(Cl)C3(Cl)C2(Cl)Cl)C2(Cl)C(Cl)=C(Cl)C1(Cl)C2(Cl)Cl (centres undefined)
inactive: [9] 107 % of control | [11] 105 % of control | [23] 108 % of control

CN(C)CCCCNc1ccc(NCCCCN(C)C)c2c1C(=O)c1c(O)ccc(O)c1C2=O
inactive: dose: 12.5 mg/kg/injection, schedule: Q01DX009 (ip), vehicle: saline 100 % of control | [7] 108 % of control | [9] 106 % of control

Nc1nc(N)c(CCCOc2ccc(C(=O)O)cc2)c(N)n1
inactive: [4] 93 % of control | [5] 97 % of control

CC(=O)Oc1c2c(c(OC(C)=O)c3ccccc13)C(=O)C(O)C(C)O2 (centres undefined)
inactive: [13] 102 % of control | [14] 96 % of control | [15] 100 % of control

CC(=O)c1cc(C)ccc1S(C)=O (centres undefined)
inactive: dose: 50.0 mg/kg/injection, schedule: Q01DX005 (ip), vehicle: acetone 99 % of control | dose: 100.0 mg/kg/injection, schedule: Q01DX005 (ip), vehicle: acetone 100 % of control | dose: 200.0 mg/kg/injection, schedule: Q01DX005 (ip), vehicle: acetone 100 % of control

CN1CCC(=C2c3ccccc3CC(O)c3sccc32)CC1 (centres undefined)
inactive: dose: 100.0 mg/kg/injection, schedule: Q04DX003 (ip), vehicle: saline with Tween-80 94 % of control | dose: 200.0 mg/kg/injection, schedule: Q04DX003 (ip), vehicle: saline with Tween-80 98 % of control

COC1C(=O)OC(=O)C1OC (centres undefined)
inactive: [16] 109 % of control and 117 % of control | [17] 102 % of control and 117 % of control | [18] 100 % of control and 109 % of control and 90 % of control

CN=C(c1ccc(NC(=O)c2ccc(C(=O)Nc3ccc(C(=NC)N4CCCC4)cc3)cc2)cc1)N1CCCC1
inactive: dose: 0.39 mg/kg/injection, schedule: Q01DX005 (ip), vehicle: Klucel (hydroxypropylcellulose) (HPC) 99 % of control | dose: 0.78 mg/kg/injection, schedule: Q01DX005 (ip), vehicle: Klucel (hydroxypropylcellulose) (HPC) 93 % of control | dose: 1.56 mg/kg/injection, schedule: Q01DX005 (ip), vehicle: Klucel (hydroxypropylcellulose) (HPC) 94 % of control | dose: 3.12 mg/kg/injection, schedule: Q01DX005 (ip), vehicle: Klucel (hydroxypropylcellulose) (HPC) 97 % of control

Cc1c(C#N)c2n(c1C)CC(=O)N2
inactive: [1] 87 % of control | [2] 95 % of control

CC1NCCc2[nH]cnc21 (centres undefined)
inactive: [9] 96 % of control | [11] 100 % of control | [23] 105 % of control

CC(C)CC(NC(=O)C(Cc1ccccc1)NC(=O)C1CCCN1)C(=O)OC(C)(C)C (stereo not drawn) (H-Pro-Phe-Leu-OtBu; configuration not given here)
inactive: [20] 102 % of control | [21] 94 % of control | [22] 94 % of control

Cc1c(Cc2ccccc2)c(N2CCOCC2)n2c(nc3ccccc32)c1C#N
inactive: [1] 91 % of control | [2] 88 % of control | [3] 91 % of control

CN(C)CCSc1nc2ccccc2s1
inactive: [18] 101 % of control | [19] 104 % of control
